Seven compounds from ChEMBL document CHEMBL5136972, “Targeting SARS-CoV-2 Proteases and Polymerase for COVID-19 Treatment: State of the Art and Future Opportunities” (J Med Chem, 2022) can be followed below.

Data set [1] is described as follows: Cytotoxicity against African green monkey Vero cells. The data set is classed as toxicity, cell-based. As to conditions: chlorocebus sabaeus.
In data set [2] the test system is Murine hepatitis virus. The data set is described as follows: Antiviral activity against MHV-A59 infected in African green monkey Vero cells assessed as inhibition of plaque formation by viral plaque assay. The data set is classed as functional, organism-based. The settings on record: Murine coronavirus.
The subject of data set [3] is Murine hepatitis virus. Description: Antiviral activity against MHV infected in African green monkey Vero cells assessed as inhibition of plaque formation by viral plaque assay. The data set is classed as functional, organism-based. The settings on record: Murine coronavirus.
Data set [4] deals with Feline infectious peritonitis virus. The data set is described as follows: Antiviral activity against FIPV infected in African green monkey Vero cells assessed as inhibition of plaque formation by viral plaque assay. The data set is classed as functional, organism-based. As to conditions: Alphacoronavirus 1, Vero.
The next data set concerns Human coronavirus 229E. Description: Antiviral activity against HCoV-229E infected in African green monkey Vero cells assessed as inhibition of plaque formation by viral plaque assay. The data set is classed as functional, organism-based.
Data set [5] in a line: Inhibition of MERS CoV 3CL protease using MCA-AVLQSGFR-Lys(Dnp)-Lys-NH2 as substrate by fluorescence based analysis. Also on record: species or system Middle East respiratory syndrome-related coronavirus.
Data set [6] deals with SARS-CoV-2. The data set is described as follows: Antiviral activity against SARS CoV-2 assessed as inhibition of virus-induced cytopathic effect by neutral red uptake assay. The data set is classed as functional, organism-based. As to conditions: Severe acute respiratory syndrome coronavirus 2. (Cytopathic effects are the visible damage that an infection or toxin causes in cultured cells.)

The nature of data set [7]: Half life in mouse at 2 mg/kg, IM. The data set is classed as ADME, organism-based. As to conditions: in vivo.
Data set [8] in a line: Half life in Sprague-Dawley […] measured up to 24 hrs. The data set is classed as ADME, organism-based. On the technique in general: Microsomes from liver hold many membrane-bound enzymes, among them those of drug oxidation.
Data set [9] in a line: Cytotoxicity against African green monkey Vero E6 cells by CCK-8 assay. The data set is classed as toxicity, cell-based, Vero C1008. As to conditions: chlorocebus sabaeus. In general terms: Tetrazolium assays rely on reduction of a dye to a coloured formazan, in cell work by metabolically active cells.
Data set [10] is described as follows: Inhibition of MERS 3CL protease using Dabcyl-KTSAVLQ/SGFRKME-Edans as substrate incubated for 30 mins followed by substrate addition measured after 30 mins by FRET assay. Also on record: species or system Middle East respiratory syndrome-related coronavirus.
Data set [11] in a line: Inhibition of FIPV 3CL protease using dabcyl-KTSAVLQ/SGFRKME-edans as substrate incubated for 30 mins followed by substrate addition measured after 30 mins by FRET assay. On the set-up: species or system Feline infectious peritonitis virus.
The nature of data set [12]: Inhibition of TGEV 3CL protease using Dabcyl-KTSAVLQ/SGFRKME-Edans as substrate incubated for 30 mins followed by substrate addition measured after 30 mins by FRET assay. On the set-up: species or system Transmissible gastroenteritis virus.
The target in data set [13] is Replicase polyprotein 1ab (Severe acute respiratory syndrome coronavirus 2, UniProt P0DTD1). The data set is described as follows: Inhibition of recombinant SARS CoV-2 PL protease incubated for 60 mins by fluorescence based analysis.
Data set [14] is described as follows: in vivo. As to conditions: C57BL/6J (wild type), mouse, sc, 25 mg/kg.
A short description of data set [15]: in vivo. As to conditions: C57BL/6J (Ces1c knockout), mouse, sc, 25 mg/kg.
In data set [16] the test system is SARS-CoV-2. The data set is described as follows: Antiviral activity against SARS CoV-2 infected in human Huh-7 cells measured up to 72 hrs by plaque assay. The data set is classed as functional, organism-based. The settings on record: Severe acute respiratory syndrome coronavirus 2, Huh-7, 72 h.
Data set [17] concerns Middle East respiratory syndrome-related coronavirus. Description: Antiviral activity against […] CoV infected in HAE cells measured after 48 hrs by CellTiter-Glo assay. The data set is classed as functional, organism-based.
The test system of another data set is SARS-CoV. Description: Antiviral activity against SARS CoV infected in HAE cells measured after 48 hrs by CellTiter-Glo assay. The data set is classed as functional, organism-based. The settings on record: Severe acute respiratory syndrome-related coronavirus.
Data set [18] concerns SARS-CoV-2. Description: Antiviral activity against SARS CoV-2 infected in African green monkey Vero E6 cells assessed as inhibition of virus-induced cytopathic effect measured after 72 hrs by Reed-Muench method. The data set is classed as functional, organism-based. The settings on record: Severe acute respiratory syndrome coronavirus 2, Vero C1008, 72 h.
The nature of data set [19]: Clearance in CD-1 mouse at 5 to 20 mg/kg, ip measured after up to 24 hrs by LC-MS/MS analysis. The data set is classed as ADME, organism-based. As to conditions: in vivo, dose 5-20 mg/kg.
The subject of data set [20] is SARS-CoV-2. Description: Antiviral activity against SARS CoV-2 infected in African green monkey Vero cells assessed as inhibition of plaque formation by viral plaque assay. The data set is classed as functional, organism-based. As to conditions: Severe acute respiratory syndrome coronavirus 2, Vero.
Data set [21] can be described thus: Half life in CD-1 mouse at 3 mg/kg, sc measured after up to 24 hrs by HPLC-MS/MS analysis. The data set is classed as ADME, organism-based. The settings on record: in vivo.
Data set [22] is described as follows: Cmax in CD-1 mouse at 3 mg/kg, sc measured after up to 24 hrs by HPLC-MS/MS analysis. As to conditions: in vivo. On the set-up: time < 24 hrs, dose 3 mg/kg, route sc. The data set is classed as ADME, organism-based.
Data set [23] in a line: Inhibition of MERS CoV 3CL protease expressed in Escherichia coli BL21-Gold DE3 cells by FRET assay. On the set-up: species or system Middle East respiratory syndrome-related coronavirus.

As usually defined, the CC50 is the concentration at which the toxic effect on the cells reaches its halfway point. The EC50 is the concentration needed to bring the measured effect to its halfway point. Broadly, the IC50 is the concentration that gives 50% inhibition. The compound `Cc1cc(C(=O)N[C@@H](C)C(=O)N[C@H](C(=O)N[C@@H](CC(C)C)C(=O)N[C@H](/C=C/C(=O)OCc2ccccc2)C[C@@H]2CCNC2=O)C(C)C)no1` returned a CC50 in data set [1] of over 133000 nM. For the same compound, the EC50 in the data set with Murine hepatitis virus [2] was found to be 2700 nM; in the data set on Murine hepatitis virus [3] it was 3400 nM; in data set [4], 8800 nM; in the data set on Human coronavirus 229E it was 4000 nM. Further, in [5], the IC50 amounted to 300 nM.

Usually half-life stands for the time in which the quantity being followed falls by half. On to `Nc1ncnc2c([C@@H]3N[C@H](CO)[C@@H](O)[C@H]3O)c[nH]c12`, for which, in the data set on SARS-CoV-2 [6], the EC50 worked out at 57700 nM. Also, the half-life is under 5 min in data set [7] and 372 min in data set [8].

Take `CC(C)C[C@H](NC(=O)OCc1ccccc1)C(=O)N[C@@H](C[C@@H]1CCNC1=O)C(O)S(=O)(=O)O` (stereo partly specified): the CC50 in [9] is over 100000 nM. Besides, the IC50 in [10] came to 1560 nM; in data set [11], 720 nM; in [12] it was 820 nM.

Turning to `O=C(Nc1ccccc1O)c1ccccc1[Se][Se]c1ccccc1C(=O)Nc1ccccc1O`, the IC50 in [13] was determined as 34000 nM.

Consider `CCC(CC)COC(=O)[C@H](C)N[P@](=O)(OC[C@H]1O[C@@](C#N)(c2ccc3c(N)ncnn23)[C@H](O)[C@@H]1O)Oc1ccccc1`, for which the half-life at 144 h in the data set “in vivo [14]” was under 5 min; in the data set “in vivo [15]” it was 25 min. The EC50 turned out to be 3 nM with SARS-CoV-2 [16], 74 nM in data set [17], 69 nM in the data set on SARS-CoV and 651 nM with SARS-CoV-2 [18].

Broadly, the CL/F is clearance divided by bioavailability, as obtained after extravascular dosing. The compound `O=C[C@H](C[C@@H]1CCNC1=O)NC(=O)[C@H](Cc1cccc(F)c1)NC(=O)c1cc2ccccc2[nH]1` gave a CL/F in data set [19] of 21 mL/min/kg. In addition, the EC50 in the data set on SARS-CoV-2 [20] stood at 720 nM. Moreover, the CC50 in [9] is over 100000 nM.

One may read the Cmax as the peak of the concentration-time curve. Regarding `CC(C)(C)OC(=O)Nc1cccn([C@@H](CC2CC2)C(=O)N[C@@H](C[C@@H]2CCNC2=O)C(=O)C(=O)NCc2ccccc2)c1=O`, in data set [21], the half-life was under 120 min. Also, the Cmax in [22] amounted to 126 ng/mL. This compound also registered an IC50 in data set [23] of 580 nM.
